Source: PubChem BioAssay AID1963978 (Molecular Pharmacology Branch, DTP, NCI, 2024)

Tested on: 616215-338-R-J1-PDC spheroids with HUVEC/MSC, viability
Assay: Anticancer human tumor 616215-338-R-J1-PDC patient-derived colon adenocarcinoma cell line growth inhibition [PI3K]
Conditions: for IC50: curve of first compound; for viability, T/C: stronger effect = lower value
Source text: Combinatorial screen of targeted agents with the PI3K inhibitors inavolisib, alpelisib, duvelisib, and copanlisib in multi-cell type tumor spheroids
A high-throughput screen of multi-cell type tumor spheroids was designed to identify active combinations of targeted small molecules and PI3K pathway inhibitors. Complex spheroids include a stromal component modeled by human endothelial cells (HUVEC) and fibroblasts modeled by human mesenchymal stem cells (MSCs). The concentration ranges selected for each drug and investigational agent were based upon clinically achievable concentrations if the clinical Cmax of the agent was known.
Compounds. The drugs and investigational agents: inavolisib (NSC800729), alpelisib (NSC765974), duvelisib (NSC772469), copanlisib (NSC816437), ipatasertib (NSC767898), afuresertib (NSC778305), talazoparib (NSC767125), sapanisertib (NSC764658), selumetinib (NSC741078), tovorafenib (DAY101, NSC766906), vemurafenib (NSC761431), ravoxertinib (NSC781343), sotorasib (NSC818433), MRTX1133 (NSC 836407), abemaciclib (NSC 768073), palbociclib (NSC758247), venetoclax (NSC 766270), SY5609 (NSC837396), enzalutamide (NSC755605), and darolutamide (NSC825331), were obtained from the National Cancer Institute (NCI) Developmental Therapeutics Program Chemical Repository. The FDA-approved anticancer drug set is available from the NCI Developmental Therapeutics Program. […] The stock solutions were prepared in dimethyl sulfoxide (DMSO, Sigma-Aldrich, St. Louis, MO, cat. D2650) at 800-fold the tested concentration and stored at -70 degrees C prior to their use. All drugs and investigational agents were tested over a range starting from a high concentration at or near the clinical Cmax and decreasing in half-log increments. If the clinical Cmax for an agent had not been determined, the highest concentration tested was 10 microM.
Cell Culture. All cells were maintained in an incubator at 37 degrees C and 5% CO2 with 95% humidity. The PDC lines were cultured according to standard operating procedures established by the NCI PDMR (https://pdmr.cancer.gov/sops/default.htm). All PDCs were thawed and cultured in Matrigel-coated flasks prepared with a working solution of 1X Ham's F-12 nutrient mix, without supplementation (Invitrogen, Waltham, MA, cat. 11765054), 100 U/mL penicillin-streptomycin (Invitrogen, cat. 15140122), and 2.5% Matrigel (Corning Inc., Corning, NY, cat. 354248) for the first three passages. The 354836-022-R-J1-PDC, 475296-252-R-J1-PDC, and 997726-040-R-J2-PDC lines were cultured in 6A media, which includes advanced DMEM/F-12 (Thermo Fisher Scientific, cat. 12634028), 10 mM HEPES (Thermo Fisher Scientific, cat. 15630080), 1X GlutaMAX supplement (Thermo Fisher Scientific, cat. 35050061), 0.1 mg/mL primocin (InvivoGen, San Diego, CA, cat. ant-pm-2), 10% defined fetal bovine serum, heat inactivated (HyClone Laboratories Inc., Logan, UT, cat. SH30070.03HI), 50% L-WRN conditioned media (ATCC, cat. CRL-3276), 1.25 mM N-Acetyl-L-cysteine (Sigma-Aldrich, cat. A9165), 10 mM nicotinamide (Sigma-Aldrich, cat. N0636), 1X B-27 supplement (Thermo Fisher Scientific, cat. 17504044), 1X N-2 supplement (Thermo Fisher Scientific, cat. 17502048), and 10 microM Y-27632 dihydrochloride (Tocris Bioscience, Bristol, United Kingdom, cat. 1254). The 624824-186-R-J2-PDC line was cultured in 6C/Colon 1B media, which includes all 6A media components plus 50 ng/mL human EGF recombinant protein (Thermo Fisher Scientific, cat. PHG0311). […]
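Further: spheroids exposed to agents for seven days before the viability read.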

Question: Which IC50 (second compound 0.00316 µM) does the source give for `CC(C)n1nc(-c2ccc3oc(N)nc3c2)c2c(N)ncnc21` + CC(Nc1ccc2c(c1)OCCn1cc(N3C(=O)OCC3C(F)F)nc1-2)C(N)=O here?
Answer: > 100 nM

Question: What about the IC50 (second compound 0.01 µM) of the same molecule?
Answer: > 100 nM

Question: What about the IC50 (second compound 0.0316 µM) of the same molecule?
Answer: > 100 nM

Question: And the IC50 (second compound 0.1 µM)?
Answer: > 100 nM

Question: What about the IC50 (second compound 0.316 µM) of the same molecule?
Answer: > 100 nM

Question: And the IC50 (second compound 1 µM)?
Answer: 93.2 nM

Question: And the viability, T/C (second compound 0.00316 µM, first compound 0.000316 µM)?
Answer: 92.2%

Question: And the viability, T/C (second compound 0.00316 µM, first compound 0.001 µM)?
Answer: 90.5%

Question: What about the viability, T/C (second compound 0.00316 µM, first compound 0.00316 µM) of the same molecule?
Answer: 87.2%

Question: What about the viability, T/C (second compound 0.00316 µM, first compound 0.01 µM) of the same molecule?
Answer: 114%

Question: What about the viability, T/C (second compound 0.00316 µM, first compound 0.0316 µM) of the same molecule?
Answer: 99.2%

Question: And the viability, T/C (second compound 0.00316 µM, first compound 0.1 µM)?
Answer: 91.5%

Question: And the viability, T/C (second compound 0.01 µM, first compound 0.000316 µM)?
Answer: 93%

Question: What about the viability, T/C (second compound 0.01 µM, first compound 0.001 µM) of the same molecule?
Answer: 102%

Question: What about the viability, T/C (second compound 0.01 µM, first compound 0.00316 µM) of the same molecule?
Answer: 111%

Question: What about the viability, T/C (second compound 0.01 µM, first compound 0.01 µM) of the same molecule?
Answer: 112%

Question: What about the viability, T/C (second compound 0.01 µM, first compound 0.0316 µM) of the same molecule?
Answer: 113%

Question: What about the viability, T/C (second compound 0.01 µM, first compound 0.1 µM) of the same molecule?
Answer: 102%

Question: And the viability, T/C (second compound 0.0316 µM, first compound 0.000316 µM)?
Answer: 100%

Question: And the viability, T/C (second compound 0.0316 µM, first compound 0.001 µM)?
Answer: 95.3%

Question: And the viability, T/C (second compound 0.0316 µM, first compound 0.00316 µM)?
Answer: 103%

Question: What about the viability, T/C (second compound 0.0316 µM, first compound 0.01 µM) of the same molecule?
Answer: 118%

Question: And the viability, T/C (second compound 0.0316 µM, first compound 0.0316 µM)?
Answer: 108%

Question: And the viability, T/C (second compound 0.0316 µM, first compound 0.1 µM)?
Answer: 82.1%

Question: What about the viability, T/C (second compound 0.1 µM, first compound 0.000316 µM) of the same molecule?
Answer: 110%

Question: And the viability, T/C (second compound 0.1 µM, first compound 0.001 µM)?
Answer: 95.3%

Question: And the viability, T/C (second compound 0.1 µM, first compound 0.00316 µM)?
Answer: 100%

Question: What about the viability, T/C (second compound 0.1 µM, first compound 0.01 µM) of the same molecule?
Answer: 110%

Question: What about the viability, T/C (second compound 0.1 µM, first compound 0.0316 µM) of the same molecule?
Answer: 117%

Question: What about the viability, T/C (second compound 0.1 µM, first compound 0.1 µM) of the same molecule?
Answer: 81.5%

Question: And the viability, T/C (second compound 0.316 µM, first compound 0.000316 µM)?
Answer: 96.6%

Question: What about the viability, T/C (second compound 0.316 µM, first compound 0.001 µM) of the same molecule?
Answer: 95.8%

Question: What about the viability, T/C (second compound 0.316 µM, first compound 0.00316 µM) of the same molecule?
Answer: 98.8%

Question: What about the viability, T/C (second compound 0.316 µM, first compound 0.01 µM) of the same molecule?
Answer: 110%

Question: And the viability, T/C (second compound 0.316 µM, first compound 0.0316 µM)?
Answer: 94.6%

Question: What about the viability, T/C (second compound 0.316 µM, first compound 0.1 µM) of the same molecule?
Answer: 76.2%

Question: And the viability, T/C (second compound 1 µM, first compound 0.000316 µM)?
Answer: 102%

Question: And the viability, T/C (second compound 1 µM, first compound 0.001 µM)?
Answer: 118%

Question: And the viability, T/C (second compound 1 µM, first compound 0.00316 µM)?
Answer: 106%

Question: And the viability, T/C (second compound 1 µM, first compound 0.01 µM)?
Answer: 96.7%

Question: What about the viability, T/C (second compound 1 µM, first compound 0.0316 µM) of the same molecule?
Answer: 86.6%

Question: What about the viability, T/C (second compound 1 µM, first compound 0.1 µM) of the same molecule?
Answer: 47.4%
